Test results reported in PubChem BioAssay (NCI).
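Abbreviation: GI50, concentration required for 50% inhibition of growth. TGI marks complete inhibition of growth.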

How the values were obtained:
Experiment in all cases: growth of human tumour cells (NCI), 384-well format
[1] = tested on: SF-268 CNS
[2] = tested on: OVCAR-4 ovarian
[3] = tested on: NCI-H23 lung
[4] = tested on: OVCAR-5 ovarian
[5] = tested on: SK-MEL-5 melanoma
[6] = tested on: COLO 205 colon
[7] = tested on: HS 578T breast
[8] = tested on: HL-60(TB) leukemia
[9] = tested on: SNB-75 CNS
[10] = tested on: HCC-2998 colon
[11] = tested on: SK-OV-3 ovarian
[12] = tested on: HCT-116 colon
[13] = tested on: BT-549 breast
[14] = tested on: CAKI-1 renal
[15] = tested on: OVCAR-8 ovarian
[16] = tested on: OVCAR-3 ovarian
[17] = tested on: NCI-H322M lung
[18] = tested on: RPMI-8226 leukemia
[19] = tested on: NCI-H460 NSCLC
[20] = tested on: NCI-H522 lung
[21] = tested on: MOLT-4 leukemia
[22] = tested on: MDA-MB-468 breast
[23] = tested on: NCI/ADR-RES ovarian
[24] = tested on: SN12C renal
[25] = tested on: HOP-62 NSCLC
[26] = tested on: KM12 colon
[27] = tested on: MALME-3M melanoma
[28] = tested on: MCF7 breast
[29] = tested on: LOX IMVI melanoma
[30] = tested on: MDA-MB-435 melanoma
[31] = tested on: SR leukemia
[32] = tested on: SK-MEL-28 melanoma
[33] = tested on: UACC-257 melanoma
[34] = tested on: EKVX NSCLC
[35] = tested on: UACC-62 melanoma
[36] = tested on: MDA-MB-231 breast
[37] = tested on: M14 melanoma
[38] = tested on: U251 glioblastoma
[39] = tested on: A549 NSCLC
[40] = tested on: SF-295 CNS
[41] = tested on: SF-539 CNS

Question: Which results are given for `C[C@@H](O)[C@@H](C)Oc1nc(Nc2ccc(S(=N)(=O)C3CC3)cc2)ncc1C(F)(F)F` (some centres not stated)?
Answer: GI50 [1]: 20.1 nM; TGI [1]: 58.6 nM; GI50 [2]: 21.3 nM; TGI [2]: 56.9 nM; GI50 [3]: 17.1 nM; TGI [3]: 36.1 nM; GI50 [4]: 16.8 nM; TGI [4]: 54.5 nM; GI50 [5]: < 10 nM; TGI [5]: 21.5 nM; GI50 [6]: 16.4 nM; TGI [6]: 42.6 nM; GI50 [7]: 24.4 nM; TGI [7]: 62.8 nM; GI50 [8]: < 10 nM; TGI [8]: 20.7 nM; GI50 [9]: 16.4 nM; TGI [9]: 33 nM; GI50 [10]: 12 nM; TGI [10]: 33.3 nM; GI50 [11]: 41.7 nM; TGI [11]: > 100000 nM; GI50 [12]: 12.5 nM; TGI [12]: > 100000 nM; GI50 [13]: 12.4 nM; TGI [13]: 27.1 nM; GI50 [14]: 32.2 nM; TGI [14]: > 100000 nM; GI50 [15]: 18.8 nM; TGI [15]: 73.7 nM; GI50 [16]: 18.2 nM; TGI [16]: 43.9 nM; GI50 [17]: 21.2 nM; TGI [17]: 46.7 nM; GI50 [18]: 15.2 nM; TGI [18]: 28.9 nM; GI50 [19]: 12 nM; TGI [19]: 28.5 nM; GI50 [20]: < 10 nM; TGI [20]: 24.9 nM; GI50 [21]: 20.2 nM; TGI [21]: 35 nM; GI50 [22]: 15.9 nM; TGI [22]: 30.2 nM; GI50 [23]: 67.3 nM; TGI [23]: 406 nM; GI50 [24]: 16.6 nM; TGI [24]: 36.4 nM; GI50 [25]: 14.4 nM; TGI [25]: 44.8 nM; GI50 [26]: 23.4 nM; TGI [26]: > 100000 nM; GI50 [27]: 23.5 nM; TGI [27]: 46.6 nM; GI50 [28]: 24.1 nM; TGI [28]: > 100000 nM; GI50 [29]: 14.6 nM; TGI [29]: 48.9 nM; GI50 [30]: 23.3 nM; TGI [30]: 64.5 nM; GI50 [31]: < 10 nM; TGI [31]: 13.2 nM; GI50 [32]: 16.4 nM; TGI [32]: 39.5 nM; GI50 [33]: 17.7 nM; TGI [33]: 37.2 nM; GI50 [34]: 23.8 nM; TGI [34]: 52 nM; GI50 [35]: 12.7 nM; TGI [35]: 27.9 nM; GI50 [36]: 28.3 nM; TGI [36]: > 100000 nM; GI50 [37]: 19.7 nM; TGI [37]: 85.2 nM; GI50 [38]: 20.2 nM; TGI [38]: 60 nM; GI50 [39]: 33.4 nM; TGI [39]: > 100000 nM; GI50 [40]: 30.9 nM; TGI [40]: > 100000 nM; GI50 [41]: 17.9 nM; TGI [41]: 36.4 nM
